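Interpolation was linear, between the two tested concentrations surrounding the appropriate level; five concentrations were tested over 48 hours in 96-well plates. Abbreviation: GI50, concentration required for 50% inhibition of growth. Definition used: TGI = concentration required for complete inhibition of growth.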

Among the test systems are HCT-15 colon; OVCAR-3 ovarian; OVCAR-8 ovarian; SF-295 CNS; SK-MEL-5 melanoma; SN12C renal; SNB-75 CNS; UACC-257 melanoma; MDA-MB-231 breast; MDA-MB-435.
What all share (experiment): growth of human tumour cells (NCI), 48 h

As to `COc1ccc(N2C(=O)C(N3C(=O)C=CC3=O)C2C=O)cc1` (stereo not drawn), the TGI in the experiment with HCT-15 colon, in the experiment with OVCAR-3 ovarian, with OVCAR-8 ovarian, with SF-295 CNS, in the experiment with SK-MEL-5 melanoma and with SN12C renal was > 100 µM throughout. Besides, the TGI in the experiment with SNB-75 CNS and in the experiment on UACC-257 melanoma was > 100 µM in each case.
As for `COc1cccc2c1[C@]1(O)C(O)CCCC21` (stereo partly drawn), the TGI with HCT-15 colon, with OVCAR-3 ovarian, in the experiment on OVCAR-8 ovarian, with SF-295 CNS, in the experiment with SK-MEL-5 melanoma and in the experiment on SN12C renal was > 100 µM each time. Further, the TGI in the experiment with SNB-75 CNS and in the experiment with UACC-257 melanoma was > 100 µM each time.
In the case of `c1cc2ccc1CNCCN1CCNCc3ccc(cc3)Oc3ccc(cc3)CNCCN(CCNCc3ccc(cc3)O2)CCNCc2ccc(cc2)Oc2ccc(cc2)CNCC1`, the GI50 in the experiment on HCT-15 colon was 4.62 µM; with MDA-MB-231 breast it was 521 nM; in the experiment with MDA-MB-435, 1360 nM; with OVCAR-3 ovarian it was 1.65 µM; in the experiment on SF-295 CNS, 1760 nM; in the experiment with SK-MEL-5 melanoma it was 2260 nM. The GI50 was 0.446 µM with SN12C renal and 1.8 µM in the experiment on UACC-257 melanoma. Further, the TGI in the experiment with HCT-15 colon amounted to 20.1 µM; in the experiment on MDA-MB-231 breast, 1.75 µM; with MDA-MB-435, 2.7 µM; in the experiment on OVCAR-3 ovarian it was 3.05 µM; with SF-295 CNS, 3.18 µM; in the experiment on SK-MEL-5 melanoma it was 5.19 µM. In addition, the TGI in the experiment with SN12C renal is 1.57 µM; in the experiment with UACC-257 melanoma, 3.4 µM.
Consider `CC1(C)CC2(C)OC(=N)C1(C#N)C2(C#N)C#N` (stereo not drawn), for which the TGI was found to be 4.84 µM in the experiment on HCT-15 colon; 21.2 µM in the experiment with MDA-MB-231 breast; 33.3 µM with MDA-MB-435; 46.8 µM in the experiment on OVCAR-8 ovarian; 31.5 µM in the experiment on SF-295 CNS; 21 µM in the experiment on SK-MEL-5 melanoma. In addition, the TGI in the experiment with SN12C renal is 21.7 µM; in the experiment with UACC-257 melanoma, 19.9 µM.
Regarding `O=C(C=P(c1ccccc1)(c1ccccc1)c1ccccc1)c1ccc(-c2ccc(F)cc2F)cc1`, the TGI in the experiment with HCT-15 colon was determined as 7.81 µM; in the experiment with MDA-MB-231 breast it was 4.92 µM; in the experiment with MDA-MB-435, 5.79 µM; with OVCAR-3 ovarian it was 5.19 µM; in the experiment on SF-295 CNS, 9.87 µM; with SK-MEL-5 melanoma it was 3.55 µM. The TGI in the experiment on SN12C renal stood at 5.31 µM; with UACC-257 melanoma, 8.57 µM.
Turning to `CCOC(=O)C[n+]1ccc2c([nH]c3cc(OC)ccc32)c1C`, the TGI in the experiment on HCT-15 colon, in the experiment with OVCAR-3 ovarian, in the experiment with OVCAR-8 ovarian, in the experiment with SF-295 CNS, in the experiment with SK-MEL-5 melanoma and in the experiment on SN12C renal was > 100 µM throughout. For the same compound, the TGI with SNB-75 CNS and in the experiment with UACC-257 melanoma was > 100 µM each time.
As to `CC1OC=CC(=O)C1O` (stereo not drawn), the TGI in the experiment with HCT-15 colon, in the experiment with OVCAR-3 ovarian, in the experiment with OVCAR-8 ovarian, in the experiment on SF-295 CNS, with SK-MEL-5 melanoma and in the experiment with SN12C renal was > 100 µM throughout. Moreover, the TGI in the experiment with SNB-75 CNS and with UACC-257 melanoma was > 100 µM throughout.
Take `COC(=O)C(C(=O)OC)C1CC(=O)c2c(Br)sc(Br)c21` (stereo not drawn): the TGI amounted to 21.6 µM in the experiment on HCT-15 colon; 40.9 µM with MDA-MB-435; 17.5 µM with OVCAR-3 ovarian; 37.8 µM with OVCAR-8 ovarian; 60.9 µM with SF-295 CNS; 28.3 µM in the experiment on SK-MEL-5 melanoma. Besides, the TGI with SN12C renal amounted to 32.4 µM; in the experiment on SNB-75 CNS, 75 µM; in the experiment with UACC-257 melanoma it was 76.8 µM.
Regarding `c1ccc(-c2[nH]c(-c3ccccc3)c(-c3cnccn3)c2-c2cnccn2)cc1`, the TGI with HCT-15 colon, in the experiment on OVCAR-3 ovarian, in the experiment on OVCAR-8 ovarian, in the experiment on SF-295 CNS, in the experiment on SK-MEL-5 melanoma and in the experiment on SN12C renal was > 100 µM in each case. Also, the TGI in the experiment on SNB-75 CNS and in the experiment on UACC-257 melanoma was > 100 µM in each case.
Regarding `CCOC(=O)CCC(C(=O)OCC)n1nnc2cc(Nc3c(C)[n+]([O-])c4ccc(Cl)cc4[n+]3[O-])ccc21` (stereo not drawn), the TGI in the experiment on HCT-15 colon, with MDA-MB-435, with OVCAR-3 ovarian, in the experiment on OVCAR-8 ovarian, with SF-295 CNS and with SK-MEL-5 melanoma was > 100 µM each time. Further, the TGI with SN12C renal, with SNB-75 CNS and in the experiment on UACC-257 melanoma was > 100 µM each time.
Consider `O=C1OC2C=CC1C1(CCOC1=O)C2` (stereo not drawn), for which the TGI in the experiment with HCT-15 colon, in the experiment with OVCAR-3 ovarian, in the experiment on OVCAR-8 ovarian, in the experiment on SK-MEL-5 melanoma, with SN12C renal and in the experiment with SNB-75 CNS was > 100 µM each time. The TGI with UACC-257 melanoma is > 100 µM.
As for `O=S(=O)(/N=C1/SC(=Nc2ccccc2)N(c2ccccc2)/C1=N/S(=O)(=O)c1ccccc1)c1ccccc1`, the TGI came out at 34.5 µM with HCT-15 colon; 35.6 µM with MDA-MB-231 breast; 62.6 µM in the experiment on OVCAR-8 ovarian; 31.3 µM in the experiment with SK-MEL-5 melanoma; 31.5 µM in the experiment on SN12C renal; 62.1 µM with SNB-75 CNS. In the experiment with UACC-257 melanoma, this compound displayed a TGI of 43.4 µM.
On to `CCOC(=O)c1c(-c2ccc(OC)c(O)c2)c(C#N)c(=S)n(C2OC(CO)C(O)C(O)C2O)c1-c1ccccc1` (stereo not drawn), for which the TGI in the experiment on HCT-15 colon, with MDA-MB-435, with SF-295 CNS, with SK-MEL-5 melanoma, in the experiment on SN12C renal and in the experiment with UACC-257 melanoma was > 100 µM each time.
`CC1(C)N=C(N)N=C(N)N1c1ccc(OCCCOc2ccccc2)c(Cl)c1`: the TGI was > 100 µM in the experiment on HCT-15 colon; 14 µM in the experiment on OVCAR-3 ovarian; 14.5 µM in the experiment with OVCAR-8 ovarian; > 43.7 µM in the experiment on SF-295 CNS; 3 µM in the experiment with SK-MEL-5 melanoma; 14.9 µM in the experiment on SN12C renal. The values for the TGI in the experiment on SNB-75 CNS and in the experiment on UACC-257 melanoma were 17.3 µM and 15.1 µM, respectively.
Turning to `CC(=O)[C@H]1CCC2[C@@H]3CC=C4C(O)C(OS(=O)(=O)O)CC[C@]4(C)C3CC[C@@]21C` (stereo partly drawn), the TGI in the experiment with HCT-15 colon, with OVCAR-3 ovarian, with OVCAR-8 ovarian, with SF-295 CNS, with SK-MEL-5 melanoma and in the experiment with SN12C renal was > 100 µM throughout. Also, the TGI in the experiment on SNB-75 CNS and in the experiment on UACC-257 melanoma was > 100 µM throughout.
For the compound `O=C(NCCCCNCCCNC(=O)OCc1ccccc1)OCc1ccccc1`, the TGI was > 100 µM in the experiment on HCT-15 colon; > 100 µM in the experiment on MDA-MB-435; > 100 µM in the experiment with OVCAR-3 ovarian; 67.1 µM in the experiment with OVCAR-8 ovarian; 51.5 µM in the experiment on SF-295 CNS; 32.5 µM in the experiment with SK-MEL-5 melanoma. In addition, the figures for the TGI in the experiment on SN12C renal, with SNB-75 CNS and in the experiment on UACC-257 melanoma were > 100 µM, 89.4 µM and 41.3 µM, respectively.
In the case of `NC1CCCCC1N.O=S(=O)([O-])CCCN1CCN(CCO)CC1.O=S(=O)([O-])CCCN1CCN(CCO)CC1.[Pt+4]`, the GI50 with HCT-15 colon was 2.63 µM; with OVCAR-3 ovarian it was 4.44 µM; with OVCAR-8 ovarian it was 2780 nM; with SF-295 CNS it was 4100 nM; in the experiment on SK-MEL-5 melanoma, 2570 nM; with SN12C renal it was 7.56 µM. In addition, the GI50 with SNB-75 CNS is > 39.9 µM; in the experiment with UACC-257 melanoma it was 5.77 µM. The TGI in the experiment with HCT-15 colon is > 61.4 µM; in the experiment with OVCAR-3 ovarian, > 36.4 µM; with OVCAR-8 ovarian, > 100 µM; in the experiment on SF-295 CNS, > 100 µM; in the experiment with SK-MEL-5 melanoma, 17.2 µM; with SN12C renal, > 100 µM. Moreover, the figures for the TGI in the experiment on SNB-75 CNS and in the experiment with UACC-257 melanoma were > 100 µM and 24 µM, respectively.
As for `COc1ccccc1N1C(=O)/C(=C\c2cccc(Oc3ccccc3)c2)S(=O)(=O)C1c1ccccc1` (stereo not drawn), the TGI in the experiment with HCT-15 colon is > 100 µM; in the experiment on MDA-MB-231 breast, > 100 µM; in the experiment with MDA-MB-435, > 100 µM; in the experiment with OVCAR-3 ovarian it was > 100 µM; in the experiment on SF-295 CNS, > 100 µM; in the experiment with SK-MEL-5 melanoma, 53.7 µM. The TGI in the experiment on SN12C renal and in the experiment with UACC-257 melanoma was > 100 µM in each case.
As for `O=c1c(-c2ccc(O)cc2)coc2cc(O)cc(O)c12`, the TGI in the experiment with HCT-15 colon, with MDA-MB-435, in the experiment on OVCAR-8 ovarian, in the experiment on SF-295 CNS, with SK-MEL-5 melanoma and in the experiment with SN12C renal was > 100 µM each time.
Turning to `CN(CCN(C)C(=O)CCn1ccc(=O)[nH]c1=O)C(=O)CCn1ccc(=O)[nH]c1=O`, the TGI in the experiment with HCT-15 colon, in the experiment on OVCAR-3 ovarian, in the experiment on OVCAR-8 ovarian, in the experiment with SF-295 CNS, in the experiment on SK-MEL-5 melanoma and in the experiment on SN12C renal was > 100 µM each time. Also, the TGI in the experiment on SNB-75 CNS was > 100 µM.
With `CC(=O)Nc1ccc(/C=C(\NC(=O)c2ccccc2)C(=O)NNS(=O)(=O)c2ccc(C)cc2)cc1`, the TGI is 41.1 µM with HCT-15 colon; > 100 µM with OVCAR-3 ovarian; > 100 µM in the experiment with OVCAR-8 ovarian; > 100 µM with SF-295 CNS; > 100 µM with SK-MEL-5 melanoma; > 100 µM in the experiment on SN12C renal. Further, the TGI with SNB-75 CNS and in the experiment on UACC-257 melanoma was > 100 µM throughout.
In the case of `CCCCCCc1cn([C@H]2C[C@H](O)[C@@H](CO)O2)c(=O)[nH]c1=O`, the TGI in the experiment with HCT-15 colon was > 100 µM; in the experiment with OVCAR-3 ovarian, > 100 µM; in the experiment on OVCAR-8 ovarian it was > 100 µM; with SF-295 CNS, > 31.6 µM; in the experiment on SK-MEL-5 melanoma, > 100 µM; with SN12C renal it was > 100 µM. Moreover, the TGI in the experiment on SNB-75 CNS and in the experiment with UACC-257 melanoma was > 100 µM throughout.
